According to patent US6989384B2, “Antipicornaviral compounds and compositions, their pharmaceutical uses, and materials for their synthesis” (Agouron Pharmaceuticals, Inc., priority 2000, dated 2006):
Where two headings read alike, the source gives them in different places.

Tests used:
HRV-14 = test: Antirhinoviral H1-HeLa cell culture assay (cell protection, XTT), HRV-14; assay type: cell-based, human rhinovirus; details: read-out: Cell Protection EC50
Method: (§1) In this cell protection assay, the ability of compounds to protect cells against HRV infection was measured by the XTT dye reduction method, which is described in Weislow et al., J. Natl. Cancer Inst. 1989, vol. 81, 577–586.
(§2) H1-HeLa cells were infected with HRV-14 at a multiplicity of infection (m.o.i.) of 0.13 (virus particles/cell) or mock-infected with medium only. Infected or mock-infected cells were resuspended at 8×10^5 cells per mL, and incubated with appropriate concentrations of the compounds to be tested. Two days later, XTT/PMS was added to test plates and the amount of formazan produced was quantified spectrophotometrically at 450/650 nm. The EC50 value was calculated as the concentration of compound that increased the percentage of formazan production in compound-treated, virus-infected cells to 50% of that produced by compound-free, mock-infected cells. The 50% cytotoxic dose (CC50) was calculated as the concentration of compound that decreased the percentage of formazan produced in compound-treated, mock-infected cells to 50% of that produced by compound-free, mock-infected cells.
(§3) All strains of human rhinovirus (HRV) for use in this assay were purchased from American Type Culture Collection (ATCC), except for HRV serotype-14 (produced from the infectious cDNA clone constructed by Dr. Robert Rueckert, Institute for Molecular Virology, University of Wisconsin, Madison, Wis.). HRV stocks were propagated and viral assays were performed in H1-HeLa cells (ATCC). Cells were grown in minimal essential medium with 10% fetal bovine serum, available from Life Technologies (Gaithersburg, Md.).
(§4) The compounds were tested against control compounds WIN 51711, WIN 52084, and WIN 54954 (obtained from Sterling-Winthrop Pharmaceuticals), Pirodavir (obtained from Janssen Pharmaceuticals), and Pleconaril (prepared according to the method described in Diana et al., J. Med. Chem 1995, vol. 38, 1355). Antiviral data obtained for the test compounds are shown in the Table, where all data are for HRV serotype-14 unless otherwise noted in parentheses.

[1] = target: T1, rhinovirus 3C protease from HRV serotype-14 (Human rhinovirus 14, UniProt P03303); test: Inhibition of rhinovirus 3C protease activity (FRET assay), HRV-14; assay type: biochemical; details: read-out: Protease Inhibition kobs/I
T1 construct: Recombinant rhinovirus 3C proteases; made in house
T1 sequence (P03303 1538-1719): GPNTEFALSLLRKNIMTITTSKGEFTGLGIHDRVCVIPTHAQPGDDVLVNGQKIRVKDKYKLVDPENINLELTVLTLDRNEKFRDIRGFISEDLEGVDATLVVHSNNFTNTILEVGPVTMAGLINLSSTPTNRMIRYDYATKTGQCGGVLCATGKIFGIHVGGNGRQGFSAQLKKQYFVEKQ
Method: (§5) Stock solutions (50 mM, in DMSO) of various compounds were prepared; dilutions were in the same solvent. Recombinant rhinovirus 3C proteases (see Birch et al., “Purification of recombinant human rhinovirus 14 3C protease expressed in Escherichia coli,” Protein Expr. Pur. 1995, 6(5), 609–618) from serotypes 14, 16, and 2 were prepared by the following standard chromatographic procedures: (1) ion exchange using Q Sepharose Fast Flow from Pharmacia; (2) affinity chromatography using Affi-Gel Blue from Biorad; and (3) sizing using Sephadex G-100 from Pharmacia. Each assay sample contained 2% DMSO, 50 mM tris pH 7.6, 1 mM EDTA, a test compound at the indicated concentration, approximately 1 μM substrate, and 50–100 nM protease. The kobs/I values were obtained from reactions initiated by addition of enzyme rather than substrate. RVP activity was measured in the fluorescence resonance energy transfer assay. The substrate was (N-terminal) DABCYL-(Gly-Arg-Ala-Val-Phe-Gln-Gly-Pro-Val-Gly)-EDANS. In the uncleaved peptide, the EDANS fluorescence was quenched by the proximal DABCYL group. When the peptide was cleaved, the quenching was relieved, and activity was measured as an increase in fluorescence signal. In the Table, unless otherwise indicated, all data are for rhinovirus 3C protease from HRV serotype-14 (produced from the infectious cDNA clone constructed by Dr. Robert Rueckert, Institute for Molecular Virology, University of Wisconsin, Madison, Wis.). The data in the column designated kobs/[I] were measured from progress curves in enzyme start experiments.

HRV-10 = test: Antirhinoviral H1-HeLa cell culture assay (cell protection, XTT), HRV-10; assay type: cell-based; details: Human rhinovirus sp., HRV10, 48 h, HRV-10, H1-HeLa cells, two days
Method: as §1, §2, §3, §4

HRV-1A = test: Antirhinoviral H1-HeLa cell culture assay (cell protection, XTT), HRV-1A; assay type: cell-based, human rhinovirus; details: Rhinovirus A, HRV1A, 48 h, H1-HeLa cells, two days
Method: as §1, §2, §3, §4

[2] = Cytotoxicity in mock-infected H1-HeLa cells (XTT); assay type: cell-based; details: human, two days, read-out: Toxicity CC50
Method: as §1, §2, §3

[3] = target: T2, rhinovirus 3C protease (HRV-2) (Human rhinovirus 2, UniProt P04936); test: Inhibition of rhinovirus 3C protease activity (FRET assay), HRV-2; assay type: biochemical; details: read-out: Protease Inhibition kobs/I
T2 construct: Recombinant rhinovirus 3C proteases; made in house
T2 sequence (P04936 1508-1690): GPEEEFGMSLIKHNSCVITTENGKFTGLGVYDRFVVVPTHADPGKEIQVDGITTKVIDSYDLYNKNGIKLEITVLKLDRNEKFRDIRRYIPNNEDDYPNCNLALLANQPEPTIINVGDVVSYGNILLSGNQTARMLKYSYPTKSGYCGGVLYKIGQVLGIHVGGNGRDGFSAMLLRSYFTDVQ
Method: as §5

HRV-2 = test: Antirhinoviral H1-HeLa cell culture assay (cell protection, XTT), HRV-2; assay type: cell-based, human rhinovirus; details: Rhinovirus A, HRV2, 48 h, HRV-2, H1-HeLa cells, two days
Method: as §1, §2, §3, §4

H1-HeLa cells = test: Cytotoxicity in mock-infected H1-HeLa cells (XTT); assay type: cell-based; details: two days, read-out: Toxicity CC50
Method: as §1, §2, §3

[4] = target: T3, rhinovirus 3C protease (HRV-16) (Human rhinovirus 16, UniProt Q82122); test: Inhibition of rhinovirus 3C protease activity (FRET assay), HRV-16; assay type: biochemical; details: HRV-16 3C protease; progress curves, enzyme start; read-out: Protease Inhibition kobs/I
T3 construct: Recombinant rhinovirus 3C proteases; made in house
T3 sequence (Q82122 1511-1693): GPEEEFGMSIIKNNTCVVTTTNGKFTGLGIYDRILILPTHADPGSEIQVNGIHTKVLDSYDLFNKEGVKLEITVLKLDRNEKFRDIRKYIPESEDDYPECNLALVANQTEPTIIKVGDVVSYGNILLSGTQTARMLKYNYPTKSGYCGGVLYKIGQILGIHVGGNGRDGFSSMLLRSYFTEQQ
Method: Stock solutions (50 mM, in DMSO) of various compounds were prepared; dilutions were in the same solvent. Recombinant rhinovirus 3C proteases (see Birch et al., “Purification of recombinant human rhinovirus 14 3C protease expressed in Escherichia coli,” Protein Expr. Pur. 1995, 6(5), 609–618) from serotypes 14, 16, and 2 were prepared by the following standard chromatographic procedures: (1) ion exchange using Q Sepharose Fast Flow from Pharmacia; (2) affinity chromatography using Affi-Gel Blue from Biorad; and (3) sizing using Sephadex G-100 from Pharmacia. Each assay sample contained 2% DMSO, 50 mM tris pH 7.6, 1 mM EDTA, a test compound at the indicated concentration, approximately 1 μM substrate, and 50–100 nM protease. The kobs/I values were obtained from reactions initiated by addition of enzyme rather than substrate. RVP activity was measured in the fluorescence resonance energy transfer assay. The substrate was (N-terminal) DABCYL-(Gly-Arg-Ala-Val-Phe-Gln-Gly-Pro-Val-Gly)-EDANS. In the uncleaved peptide, the EDANS fluorescence was quenched by the proximal DABCYL group. When the peptide was cleaved, the quenching was relieved, and activity was measured as an increase in fluorescence signal. […] The data in the column designated kobs/[I] were measured from progress curves in enzyme start experiments.

[5] = target: T4, rhinovirus 3C protease (HRV-89) (Human rhinovirus A serotype 89, UniProt P07210); test: Inhibition of rhinovirus 3C protease activity (FRET assay), HRV-89; assay type: biochemical, human rhinovirus 89; details: HRV-89 3C protease; progress curves, enzyme start; read-out: Protease Inhibition kobs/I
T4 construct: Recombinant rhinovirus 3C proteases
T4 sequence (P07210 1522-1704): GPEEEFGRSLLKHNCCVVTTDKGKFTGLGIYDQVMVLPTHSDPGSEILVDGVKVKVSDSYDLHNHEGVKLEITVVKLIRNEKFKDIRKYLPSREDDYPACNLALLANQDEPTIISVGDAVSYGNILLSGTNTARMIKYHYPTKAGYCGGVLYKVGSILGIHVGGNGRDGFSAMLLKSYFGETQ

[6] = Rhinovirus B, HRV14, 48 h, HRV-14, H1-HeLa cells, XTT, two days
[7] = HRV-14 3C protease, progress curves, enzyme start
[8] = Rhinovirus B, HRV14, H1-HeLa, 48 h
[9] = HRV-14, H1-HeLa cells, XTT, two days

Row | kinact/KI [1, 7] [M⁻¹ s⁻¹] | Compound | EC50 (HRV-10) [µM] | EC50 (HRV-1A) [µM] | CC50 at 2 days [2] [µM] | EC50 (HRV-14; [8]) [µM] | kinact/KI [1] [M⁻¹ s⁻¹] | further results
1 | 150 | CCOC(=O)/C=C/[C@H](CCC(N)=O)NC(=O)c1ccc2ccccc2c1 [Compound 25, 6-carbamoyl-4S-[(naphthalene-2-carbonyl)-amino]-hex-2-enoic acid ethyl ester] | 35 | 22 | > 100 | – | – | EC50 (HRV-14; [6]): 0.6 µM
2 | – | CCOC(=O)/C=C/[C@H](C[C@@H]1CCNC1=O)NC(=O)C1=Cc2cc(Br)ccc2OC1 [Compound 52, 4S-[(6-Bromo-2H-chromene-3-carbonyl)-amino]-5-(2-oxo-pyrrolidin-3S-yl)-pent-2-enoic acid ethyl ester] | 0.546 | 5.07 | 65 | 0.175 | 25000 | kinact/KI [3]: 372 M⁻¹ s⁻¹
3 | 220 | CCOC(=O)/C=C/[C@H](C[C@@H]1CCNC1=O)NC(=O)c1ccc2ccc(O)cc2c1 [Compound 54, 4S-[(7-Hydroxy-naphthalene-2-carbonyl)-amino]-5-(2-oxo-pyrrolidin-3S-yl)-pent-2-enoic acid ethyl ester] | – | – | – | – | – | kinact/KI ([3]; HRV-2 3C protease, progress curves, enzyme start): 35 M⁻¹ s⁻¹
4 | – | CCOC(=O)/C=C/[C@H](C[C@@H]1CCNC1=O)NC(=O)c1ccc2ccccc2c1 [Compound 1, 4S-[(naphthalene-2-carbonyl)-amino]-5-(2-oxo-pyrrolidin-3S-yl)-pent-2-enoic acid ethyl ester] | – | – | > 100 | 0.15 | 1090 | EC50 (HRV-2): 1.35 µM; kinact/KI [3]: 110 M⁻¹ s⁻¹
5 | – | CCOC(=O)/C=C/[C@H](C[C@@H]1CCNC1=O)NC(=O)c1ccc2ccc(Br)cc2c1 [Compound 53, 4S-[(7-Bromo-naphthalene-2-carbonyl)-amino]-5-(2-oxo-pyrrolidin-3S-yl)-pent-2-enoic acid ethyl ester] | 0.546 | 4.18 | 56.2 | 0.184 | 31400 | EC50 (HRV-2): 0.422 µM; kinact/KI [3]: 385 M⁻¹ s⁻¹
6 | – | CCOC(=O)/C=C/[C@H](C[C@@H]1CCNC1=O)NC(=O)/C=C/c1cc2c(cc1Br)OCO2 [Compound 49, 4S-[3-(6-Bromo-benzo[1,3]dioxol-5-yl)-acryloylamino]-5-(2-oxo-pyrrolidin-3S-yl)-pent-2-enoic acid ethyl ester] | 0.316 | 2.51 | > 100 | 0.49 | 14400 | –
7 | – | Cc1cc(CCCCCCCOc2ccc(C3=N[C@@H](C)CO3)cc2)on1 [WIN 52084, reference compound] | – | – | – | – | – | EC50 (HRV-14; [9]): 0.07 µM; CC50 (H1-HeLa cells): > 10 µM
8 | – | Cc1cc(CCCCCOc2c(Cl)cc(C3=NCCO3)cc2Cl)on1 [WIN 54954, reference compound] | – | – | – | – | – | EC50 (HRV-14; [9]): 2.13 µM; CC50 (H1-HeLa cells): > 63 µM
9 | 95 | CCOC(=O)/C=C/[C@H](CCC(N)=O)NC(=O)c1cc2ccccc2s1 [Compound 26, 4S-[(benzo[b]thiophene-2-carbonyl)-amino]-6-carbamoyl-hex-2-enoic acid ethyl ester] | 12.4 | 59 | > 100 | – | – | EC50 (HRV-14; [6]): 1.5 µM
10 | – | Cc1cc(CCCCCCCOc2ccc(C3=NCCO3)cc2)on1 [WIN 51711, reference compound] | – | – | – | – | – | EC50 (HRV-14; [9]): 0.78 µM; CC50 (H1-HeLa cells): > 60 µM
11 | – | CCOC(=O)/C=C/[C@H](C[C@@H]1CCNC1=O)NC(=O)/C=C/c1ccc(C)cc1 [Compound 12, 5-(2-oxo-pyrrolidin-3S-yl)-4S-(3-p-tolyl-acryloylamino)-pent-2-enoic acid ethyl ester] | – | – | > 10 | 2.77 | 990 | –
12 | – | CCOC(=O)/C=C/[C@H](C[C@@H]1CCNC1=O)NC(=O)Nc1cc(OC)cc(OC)c1 [Compound 57, 4S-[3-(3,5-dimethoxy-phenyl)ureido]-5-(2-oxo-pyrrolidin-3S-yl)-pent-2-enoic acid ethyl ester] | – | – | > 10 | > 10 | 388 | –
13 | 64 | CCOC(=O)/C=C/[C@H](CCC(N)=O)NC(=O)c1cnc2ccccc2n1 [Compound 28, 6-carbamoyl-4S-[(quinoxaline-2-carboxyl)-amino]-hex-2-enoic acid ethyl ester] | – | – | > 100 | – | – | EC50 (HRV-14; [6]): 14.1 µM
14 | 35 | CCOC(=O)/C=C/[C@H](CCC(N)=O)NC(=O)c1ccc(Cl)c(Cl)c1 [Compound 35, 6-carbamoyl-4S-(3,4-dichloro-benzoylamino)-hex-2-enoic acid ethyl ester] | – | – | 100 | – | – | EC50 (HRV-14; [6]): > 100 µM
15 | – | CCOC(=O)/C=C/[C@H](C[C@@H]1CCNC1=O)NC(=O)c1cc2cc(OC)c(OC)cc2n1C [Compound 19, 4S-[(5,6-dimethoxy-1-methyl-indole-2-carbonyl)-amino]-5-(2-oxo-pyrrolidin-3S-yl)-pent-2-enoic acid ethyl ester] | – | – | > 10 | 1.36 | 1230 | –
16 | – | CCOC(=O)/C=C/[C@H](C[C@@H]1CCNC1=O)NC(=O)C1=Cc2cc(Cl)ccc2OC1 [Compound 44, 4S-[(6-Chloro-2H-chromene-3-carbonyl)-amino]-5-(2-oxo-pyrrolidin-3S-yl)-pent-2-enoic acid ethyl ester] | 0.459 | 5.1 | > 100 | 0.16 | 19700 | EC50 (HRV-2): 0.645 µM; kinact/KI [4]: 2200 M⁻¹ s⁻¹; kinact/KI [5]: 800 M⁻¹ s⁻¹; kinact/KI [3]: 385 M⁻¹ s⁻¹
17 | – | CCOC(=O)/C=C/[C@H](C[C@@H]1CCNC1=O)NC(=O)c1cc2cc(Br)ccc2n1C [Compound 21, 4S-[(5-bromo-1-methyl-indole-2-carbonyl)-amino]-5-(2-oxo-pyrrolidin-3S-yl)-pent-2-enoic acid ethyl ester] | – | – | 17.8 | 3.07 | 1320 | –
18 | 27 | CCOC(=O)/C=C/[C@H](CCC(N)=O)NC(=O)c1cc(C(C)(C)C)nn1Cc1ccccc1 [Compound 33, 4S-[(2-benzyl-5-tert-butyl-2H-pyrazole-3-carbonyl)-amino]-6-carbamoyl-hex-2-enoic acid ethyl ester] | – | – | > 100 | – | – | EC50 (HRV-14; [6]): 12.6 µM
19 | – | CCOC(=O)/C=C/[C@H](C[C@@H]1CCNC1=O)NC(=O)c1cc2cc(Br)ccc2[nH]1 [Compound 20] | – | – | > 10 | 4.39 | 1370 | –
